Measurements as given in PMC5856881, “UGT79B31 is responsible for the final modification step of pollen-specific flavonoid biosynthesis in Petunia hybrida” (Planta, 2017).

Target: T1, UGT79B31 (Petunia x hybrida, UniProt A0A2Z6FLE1)
T1 construct: full-length, cloned from petunia pollen cDNA; His/ProS2 fusion (pColdProS2) in E. coli BL21star (DE3), tag cleaved with HRV3C protease; partially purified
Experiment: end-product inhibition, UPLC/PDA/QTOF/MS glucosyltransferase assay
Type: biochemical
Settings: read-out: Relative activity (%)
Excerpt: end-product inhibition, UPLC/PDA/QTOF/MS glucosyltransferase assay on UGT79B31

T1 sequence (A0A2Z6FLE1 1-455): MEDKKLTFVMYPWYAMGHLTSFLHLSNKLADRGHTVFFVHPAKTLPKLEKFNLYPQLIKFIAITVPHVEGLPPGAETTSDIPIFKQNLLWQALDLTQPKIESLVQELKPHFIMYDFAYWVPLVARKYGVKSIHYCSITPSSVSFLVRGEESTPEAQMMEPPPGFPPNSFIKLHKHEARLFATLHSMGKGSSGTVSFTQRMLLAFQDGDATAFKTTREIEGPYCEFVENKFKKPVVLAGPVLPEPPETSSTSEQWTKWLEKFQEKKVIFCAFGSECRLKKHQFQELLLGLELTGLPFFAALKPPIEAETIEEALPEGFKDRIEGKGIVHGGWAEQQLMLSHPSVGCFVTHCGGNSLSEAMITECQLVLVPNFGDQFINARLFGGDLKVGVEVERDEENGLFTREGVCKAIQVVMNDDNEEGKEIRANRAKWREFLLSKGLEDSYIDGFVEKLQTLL

O=c1ccn([C@@H]2O[C@H](COP(=O)(O)OP(=O)(O)O)[C@@H](O)[C@H]2O)c(=O)[nH]1 [UDP]
activity at 1000 µM: 4.2 ± 0.1%
